Data as given in PMC5034043 (The Journal of Biological Chemistry, 2016).
Like-named read-outs stand apart in the source and are kept apart here.

Tested on: T1, synaptosomal proteome
T1 construct: from tissue; host or cells: brain synaptosomes of male C57/B6 mice
Format: binding, mouse
Procedure: Synaptosomes were resuspended to 1 mg of protein/ml in HEPES buffer medium (in mM: 140 NaCl, 5 KCl, 5 NaHCO3, 1.2 NaH2PO4, 1 MgCl2, 10 glucose, and 10 HEPES (pH 7.4)). […] The samples were allowed to equilibrate for 5 min before being transferred to a parafilm-sealed 1-mm path length quartz cuvette. The sample was then irradiated for 20 min at a peak bandwidth of 350 nm (Rayonet RPR-3500 lamp) ∼6 cm from the light source. Non-irradiated samples were left in the dark at ambient temperature (22–25 °C) for 20 min. All remaining procedures were conducted with restricted light exposure.
To 750 μg of photolabeled or control synaptosome samples, 40 μl of 10% SDS and 2 μl of 5 mM DTT in water were added. Samples were then vortexed, heated for 10 min at 65 °C, and then briefly cooled. Final concentrations of 150 μM azide-biotin (Click Chemistry Tools), 2 mM tris(3-hydroxypropyltriazolylmethyl)amine (Sigma), 1 mM ascorbic acid (Sigma), and 1 mM CuSO4·5H2O (Sigma) were added to each sample and vortexed vigorously. The samples were left in the dark at ambient temperature (22–25 °C) for 1 h with mild agitation. Directly to each sample 4× volume chilled methanol, 1.5× chilled chloroform, and 3× chilled double distilled H2O were added. Samples were vortexed vigorously and centrifuged at 1,400 × g for 30 min at 4 °C. Both liquid layers were carefully removed, and the protein pellet was washed with 2 ml of 1:1 (v/v) chilled methanol/chloroform. Samples were centrifuged at 3,500 × g for 30 min at 4 °C. Protein pellets were briefly air-dried before further processing.
750 μg of biotin-conjugated protein sample was resuspended in 500 μl of 25 mM NH4HCO3 and 6 M urea in water. Next, 150 μl of 5% Triton X-100 in water, 50 μl of 10% SDS in water, and 1.5 μl of 0.5 M DTT were added. The samples were heated for 15 min at 65 °C. After briefly cooling, 14 μl of 0.5 M iodoacetamide in water was added, and the sample was left in the dark for 45 min. […] The supernatant was diluted to 4 ml with PBS, and 2 ml of PBS containing 100 μl of 50% streptavidin-agarose resin (Thermo Scientific) was added. Biotinylated proteins within the sample were captured over resin overnight at 4 °C with mild agitation. The resin was first washed with 6 ml of 1% SDS in PBS, and then 7 ml of 0.1 M urea in PBS followed by 10 ml of PBS. The resin underwent a final wash with 0.9 ml of 50 mM Tris-HCl and 1 mM CaCl2 in water (pH 8.0) and then resuspended in 200 μl of 50 mM Tris-HCl, 1 mM CaCl2 in water (pH 8.0), and 2 μg of porcine sequencing grade trypsin (Promega). Samples were digested overnight at 37 °C. Samples were then centrifuged at 2,000 × g for 4 min, and digest supernatant was decanted. Beads were washed in 100 μl of PBS centrifuged at 5,200 × g for 5 min, and the wash was combined with the digest supernatant. To the combined sample, trifluoroacetic acid (TFA) was added to 0.4% (v/v) or until pH <2. The sample was desalted with Oasis C18 10-mg columns (Waters) as described previously ([66]). The eluted sample was dried by speed vac and resuspended in 0.1 M HEPES buffer (pH 8.5). […] Appropriate corresponding TMTsixplex^TM-labeled samples were pooled and dried by speed vac. The combined samples were resuspended in 0.5% acetic acid in water and pH-corrected with acetic acid until pH was <2. 40 μg of protein was desalted with C18 stage tips prepared in-house and dried by speed vac.
Samples were resuspended in 10 mM KH2PO4 (pH 2.6), 30% acetonitrile (v/v) in water, and fractionated by off-line strong cation exchange chromatography prior to mass spectrometry (MS) analysis similar to as reported previously ([66]). The full synaptosome proteome control was prepared similarly without TMTsixplex^TM labeling.
All TMT samples were analyzed with three-stage mass spectrometry (MS3) TMTsixplex^TM quantification workflow as described previously ([34]).

[1] = protein P26049 Gamma-aminobutyric acid receptor subunit alpha-3 (Gabra3)
[2] = protein P27671 Ras-specific guanine nucleotide-releasing factor 1 (Rasgrf1)
[3] = protein P35762 CD81 antigen (Cd81)
[4] = protein P50571 Gamma-aminobutyric acid receptor subunit beta-1 (Gabrb1)
[5] = protein P56480 ATP synthase subunit beta, mitochondrial (Atp5b)
[6] = protein P56564 Excitatory amino acid transporter 1 (Slc1a3)
[7] = protein P60879 Synaptosomal-associated protein 25 (Snap25)
[8] = protein P61264 Syntaxin-1B (Stx1b)
[9] = protein P62204 Calmodulin (Calm1)
[10] = protein P63328 Serine/threonine-protein phosphatase 2B catalytic subunit alpha isoform (Ppp3ca)
[11] = protein Q2TPA8 Hydroxysteroid dehydrogenase-like protein 2 (Hsdl2)
[12] = protein Q3TXX4 Vesicular glutamate transporter 1 (Slc17a7)
[13] = protein Q3UN02 Lysocardiolipin acyltransferase 1 (Lclat1)
[14] = protein Q4W8U9 Scg2 protein (Scg2)
[15] = protein Q5IRJ6 Zinc transporter 9 (Slc30a9)
[16] = protein Q5U458 DnaJ homolog subfamily C member 11 (Dnajc11)
[17] = protein Q7TME0 Lipid phosphate phosphatase-related protein type 4 (Lppr4)
[18] = protein Q7TQ95 Protein lunapark (Lnp)
[19] = protein Q8BFT9 Synaptic vesicle 2-related protein (Svop)
[20] = protein Q8BG51 Mitochondrial Rho GTPase 1 (Rhot1)
[21] = protein Q8BH24 Transmembrane 9 superfamily member 4 (Tm9sf4)
[22] = protein Q8BH66 Atlastin-1 (Atl1)
[23] = protein Q8BHE3 Caytaxin (Atcay)
[24] = protein Q8BUN9 Protein Slc24a2 (Slc24a2)
[25] = protein Q8BW75 Amine oxidase [flavin-containing] B (Maob)
[26] = protein Q8CGK7 Guanine nucleotide-binding protein G(olf) subunit alpha (Gnal)
[27] = protein Q8K0T0 Reticulon-1 (Rtn1)
[28] = protein Q8VCX5 Calcium uptake protein 1, mitochondrial (Micu1)
[29] = protein Q9CPQ3 Mitochondrial import receptor subunit TOM22 homolog (Tomm22)
[30] = protein Q9D6J5 NADH dehydrogenase [ubiquinone] 1 beta subcomplex subunit 8, mitochondrial (Ndufb8)
[31] = protein Q9D328 Transmembrane protein 35 (Tmem35)
[32] = protein Q9ERS2 NADH dehydrogenase [ubiquinone] 1 alpha subcomplex subunit 13 (Ndufa13)
[33] = protein Q9ESW4 Acylglycerol kinase, mitochondrial (Agk)
[34] = protein Q9JIG8 PRA1 family protein 2 (Praf2)
[35] = protein Q9QXV0 ProSAAS (Pcsk1n)
[36] = protein Q9WU79 Proline dehydrogenase 1, mitochondrial (Prodh)
[37] = protein Q9Z0V2 Potassium voltage-gated channel subfamily D member 2 (Kcnd2)
[38] = protein Q67BT3 Solute carrier family 13 member 5 (Slc13a5)
[39] = protein Q80X80 C2 domain-containing protein 2-like (C2cd2l)
[40] = protein Q91YQ5 Dolichyl-diphosphooligosaccharide--protein glycosyltransferase subunit 1 (Rpn1)
[41] = protein Q99JB2 Stomatin-like protein 2, mitochondrial (Stoml2)
[42] = protein Q99PU5 Long-chain-fatty-acid--CoA ligase ACSBG1 (Acsbg1)
[43] = protein Q925I1 ATPase family AAA domain-containing protein 3 (Atad3)

C#CCOCc1ccc(C2(C(F)(F)F)N=N2)cc1O [AziPm-click (1), 2-((prop-2-yn-1-yloxy)methyl)-5-(3-(trifluoromethyl)-3H-diazirin-3-yl)phenol]
TMT Ratio Mean 'UV/ No UV' (protein O35963 Ras-related protein Rab-33B (Rab33b)): 16.23 | Log2( Mean 'UV/ No UV') (protein P23819-4 Isoform 4 of Glutamate receptor 2 (Gria2)): 3.65 | Log2( Mean 'UV/ No UV') [1]: 4.09 | TMT Ratio Mean 'UV/ No UV' [1]: 17.05 | Log2( Mean 'UV/ No UV') [2]: 4.14 | TMT Ratio Mean 'UV/ No UV' [2]: 17.58 | Log2( Mean 'UV/ No UV') (protein P35564 Calnexin (Canx)): 4.47 | TMT Ratio Mean 'UV/ No UV' (protein P35564 Calnexin (Canx)): 22.10 | Log2( Mean 'UV/ No UV') [3]: 4.34 | TMT Ratio Mean 'UV/ No UV' [3]: 20.23 | Log2( Mean 'UV/ No UV') [4]: 4.63 | TMT Ratio Mean 'UV/ No UV' [4]: 24.73 | Log2( Mean 'UV/ No UV') [5]: 3.54 | TMT Ratio Mean 'UV/ No UV' [5]: 11.59 | Log2( Mean 'UV/ No UV') [6]: 4.59 | TMT Ratio Mean 'UV/ No UV' [6]: 24.11 | Log2( Mean 'UV/ No UV') [7]: 4.57 | TMT Ratio Mean 'UV/ No UV' [7]: 23.77 | Log2( Mean 'UV/ No UV') [8]: 4.37 | TMT Ratio Mean 'UV/ No UV' [8]: 20.71 | Log2( Mean 'UV/ No UV') [9]: 4.63 | TMT Ratio Mean 'UV/ No UV' [9]: 24.78 | Log2( Mean 'UV/ No UV') [10]: 3.65 | TMT Ratio Mean 'UV/ No UV' [10]: 12.55 | Log2( Mean 'UV/ No UV') (protein P70429-2 Isoform 1 of Ena/VASP-like protein (Evl)): 4.31 | Log2( Mean 'UV/ No UV') (protein P97300-3 Isoform 3 of Neuroplastin (Nptn)): 3.67 | Log2( Mean 'UV/ No UV') [11]: 3.68 | TMT Ratio Mean 'UV/ No UV' [11]: 12.83 | Log2( Mean 'UV/ No UV') [12]: 4.04 | TMT Ratio Mean 'UV/ No UV' [12]: 16.48 | Log2( Mean 'UV/ No UV') [13]: 4.50 | TMT Ratio Mean 'UV/ No UV' [13]: 22.69 | Log2( Mean 'UV/ No UV') [14]: 4.03 | TMT Ratio Mean 'UV/ No UV' [14]: 16.35 | Log2( Mean 'UV/ No UV') [15]: 4.34 | TMT Ratio Mean 'UV/ No UV' [15]: 20.22 | Log2( Mean 'UV/ No UV') [16]: 3.93 | TMT Ratio Mean 'UV/ No UV' [16]: 15.27 | Log2( Mean 'UV/ No UV') [17]: 3.46 | TMT Ratio Mean 'UV/ No UV' [17]: 10.98 | Log2( Mean 'UV/ No UV') [18]: 3.56 | TMT Ratio Mean 'UV/ No UV' [18]: 11.82 | Log2( Mean 'UV/ No UV') [19]: 3.80 | TMT Ratio Mean 'UV/ No UV' [19]: 13.90 | Log2( Mean 'UV/ No UV') [20]: 3.48 | TMT Ratio Mean 'UV/ No UV' [20]: 11.17 | Log2( Mean 'UV/ No UV') [21]: 4.09 | TMT Ratio Mean 'UV/ No UV' [21]: 16.97 | Log2( Mean 'UV/ No UV') [22]: 4.36 | TMT Ratio Mean 'UV/ No UV' [22]: 20.55 | Log2( Mean 'UV/ No UV') [23]: 4.15 | TMT Ratio Mean 'UV/ No UV' [23]: 17.78 | Log2( Mean 'UV/ No UV') (protein Q8BJU0-2 Isoform 2 of Small glutamine-rich tetratricopeptide repeat-containing protein alpha (Sgta)): 3.93 | Log2( Mean 'UV/ No UV') [24]: 4.26 | TMT Ratio Mean 'UV/ No UV' [24]: 19.15 | Log2( Mean 'UV/ No UV') [25]: 4.59 | TMT Ratio Mean 'UV/ No UV' [25]: 24.13 | Log2( Mean 'UV/ No UV') [26]: 3.86 | TMT Ratio Mean 'UV/ No UV' [26]: 14.56 | Log2( Mean 'UV/ No UV') [27]: 3.46 | TMT Ratio Mean 'UV/ No UV' [27]: 10.99 | Log2( Mean 'UV/ No UV') [28]: 4.33 | TMT Ratio Mean 'UV/ No UV' [28]: 20.04 | Log2( Mean 'UV/ No UV') [29]: 4.38 | TMT Ratio Mean 'UV/ No UV' [29]: 20.75 | Log2( Mean 'UV/ No UV') [30]: 4.29 | TMT Ratio Mean 'UV/ No UV' [30]: 19.55 | Log2( Mean 'UV/ No UV') [31]: 4.09 | TMT Ratio Mean 'UV/ No UV' [31]: 16.99 | Log2( Mean 'UV/ No UV') (protein Q9DBF1-2 Isoform 2 of Alpha-aminoadipic semialdehyde dehydrogenase (Aldh7a1)): 3.89 | Log2( Mean 'UV/ No UV') (protein Q9EPJ9-2 Isoform 2 of ADP-ribosylation factor GTPase-activating protein 1 (Arfgap1)): 3.44 | Log2( Mean 'UV/ No UV') [32]: 4.27 | TMT Ratio Mean 'UV/ No UV' [32]: 19.26 | Log2( Mean 'UV/ No UV') [33]: 4.32 | TMT Ratio Mean 'UV/ No UV' [33]: 20.02 | Log2( Mean 'UV/ No UV') [34]: 3.94 | TMT Ratio Mean 'UV/ No UV' [34]: 15.37 | Log2( Mean 'UV/ No UV') [35]: 3.87 | TMT Ratio Mean 'UV/ No UV' [35]: 14.66 | Log2( Mean 'UV/ No UV') [36]: 4.21 | TMT Ratio Mean 'UV/ No UV' [36]: 18.52 | Log2( Mean 'UV/ No UV') [37]: 3.71 | TMT Ratio Mean 'UV/ No UV' [37]: 13.09 | Log2( Mean 'UV/ No UV') [38]: 3.47 | TMT Ratio Mean 'UV/ No UV' [38]: 11.09 | Log2( Mean 'UV/ No UV') [39]: 4.07 | TMT Ratio Mean 'UV/ No UV' [39]: 16.73 | Log2( Mean 'UV/ No UV') [40]: 3.76 | TMT Ratio Mean 'UV/ No UV' [40]: 13.55 | Log2( Mean 'UV/ No UV') [41]: 4.08 | TMT Ratio Mean 'UV/ No UV' [41]: 16.91 | Log2( Mean 'UV/ No UV') [42]: 4.16 | TMT Ratio Mean 'UV/ No UV' [42]: 17.83 | Log2( Mean 'UV/ No UV') [43]: 4.41 | TMT Ratio Mean 'UV/ No UV' [43]: 21.20
